Results from US5055484A, “7(1H-pyrrol-3-YL)-substituted 3,5-dihydroxyhept-6-enoic acids, 7-(1H-pyrrol-3-YL)-substituted 3,5-dihyroxyhept-anoic acids, their corresponding delta-lactones and salts, their use as medicaments and pharmaceutical products and intermediates” (Hoechst Aktiengesellschaft, priority 1987, dated 1991).

Legend:
[1] = test system: cholesterol biosynthesis; test: inhibition of cholesterol biosynthesis by incorporation of 14C-acetate into cholesterol in HEP G2 cell cultures; assay type: cell-based; conditions: for % potency relative to mevinolin sodium at IC70: comparison of IC70 with mevinolin sodium salt (internal standard)
Method: In addition, the inhibition of cholesterol biosynthesis by selected compounds was tested by the incorporation of ^14 C-precursor in cholesterol in cell cultures.
Monolayers of HEP G2 cells in lipoprotein-free nutrient medium were preincubated with various concentrations of the test substances for 1 hour. The ^14 C-labeled precursor sodium ^14 C-acetate was added, and the incubation was then continued for 3 hours. Subsequently 3H-cholesterol was added as internal standard, and a portion of these cells underwent alkaline hydrolysis. The lipids from the hydrolyzed cells were extracted with chloroform/methanol. Carrier cholesterol was added to this lipid mixture which was then subjected to preparative thin-layer chromatography, the cholesterol band was visualized with iodine vapor and then isolated, and the amount of ^14 C-cholesterol formed from the ^14 C-precursor was determined by scintigraphy. Cellular protein was determined in an aliquot of the cells, so that the amount of ^14 C-cholesterol formed from ^14 C-precursor in unit time per mg of cellular protein can be calculated. The solvent control is used for comparison of the inhibitory effect of an added test product, so that it is possible to state directly the inhibition of cholesterol biosynthesis at a particular molar concentration of the test product in the medium. The integrity of the cell culture and the absence of cell damage due to exposure to the products was checked morphologically (light microscope) in an aliquot of the cell cultures. […] The relative potency was determined by comparing the IC70 values and IC50 values for the test compound and for mevinolin sodium salt (internal standard).

[2] = target: T1, HMG--CoA reductase (Rattus norvegicus, UniProt P51639); test: inhibition of HMG-CoA reductase activity on solubilized enzyme preparations from rat liver microsomes; assay type: biochemical
T1 sequence (P51639 1-887): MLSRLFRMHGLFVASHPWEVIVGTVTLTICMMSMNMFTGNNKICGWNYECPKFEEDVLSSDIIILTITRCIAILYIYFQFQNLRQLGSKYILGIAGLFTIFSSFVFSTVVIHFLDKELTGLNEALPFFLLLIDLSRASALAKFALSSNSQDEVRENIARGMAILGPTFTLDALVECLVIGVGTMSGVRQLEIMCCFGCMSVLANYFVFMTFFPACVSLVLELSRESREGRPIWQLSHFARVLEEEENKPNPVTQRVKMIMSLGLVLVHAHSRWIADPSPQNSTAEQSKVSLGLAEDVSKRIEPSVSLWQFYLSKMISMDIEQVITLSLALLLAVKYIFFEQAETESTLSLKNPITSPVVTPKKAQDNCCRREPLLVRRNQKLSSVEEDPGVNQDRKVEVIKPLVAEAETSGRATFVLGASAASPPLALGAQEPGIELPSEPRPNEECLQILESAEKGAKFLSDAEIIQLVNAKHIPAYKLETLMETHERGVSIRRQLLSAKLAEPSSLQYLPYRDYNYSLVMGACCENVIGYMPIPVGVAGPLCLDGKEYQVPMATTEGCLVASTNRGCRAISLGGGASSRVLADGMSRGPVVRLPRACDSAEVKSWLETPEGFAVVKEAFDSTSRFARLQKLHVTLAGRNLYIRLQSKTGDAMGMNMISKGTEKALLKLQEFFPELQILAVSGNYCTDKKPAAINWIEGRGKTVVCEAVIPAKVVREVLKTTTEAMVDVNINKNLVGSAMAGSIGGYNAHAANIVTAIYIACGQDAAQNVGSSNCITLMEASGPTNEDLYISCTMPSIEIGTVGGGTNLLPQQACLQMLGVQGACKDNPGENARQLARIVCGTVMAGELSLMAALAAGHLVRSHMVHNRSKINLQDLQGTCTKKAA
Method: The inhibition of HMG--CoA reductase activity by the compounds of the general formulae I and II was determined on solubilized enzyme preparations from rat liver microsomes.
After a changeover in the day/night rhythm of the rats, enzyme production was induced with cholestyramine (®Cuemid) The substrate used was (S,R) ^14 C--HMG--CoA, and the concentration of NADPH was maintained by a regenerating system during the incubation. ^14 C-mevalonate was removed from substrate and other products (for example ^14 C--HMG) by column elution, with the elution profile of each individual sample being determined. Inclusion of ^3 H-mevalonate throughout was dispensed with because the data to be determined were of the relative inhibitory effect. In each test series the enzyme-free control, the enzyme-containing normal mixture (=100%) and those with added products were treated together. Each individual value was formed as the mean of 3 parallel samples. The t test was used to assess the significance of the differences between the means for product-free and productcontaining samples.

[3] = HEP G2 cells, 1 h preincubation, 3 h with 14C-acetate

Compound | IC50 [2] [nM] | further results
CC[C@H](C)C(=O)O[C@H]1C[C@@H](C)C=C2C=C[C@H](C)[C@H](CC[C@@H](O)C[C@@H](O)CC(=O)O)[C@H]21 [mevinolin sodium, reference compound] | – | IC70 ([1]; Homo sapiens, HepG2): 150 nM; IC50 ([1]; Homo sapiens, HepG2, HEP G2 cells, mean figure, varies somewhat from cell culture to cell culture): 50 nM
Cc1c(/C=C/[C@@H](O)C[C@@H](O)CC(=O)O)c(-c2ccc(F)cc2)c(C)n1-c1ccccc1 (relative stereo) [Example 2, Sodium 3(RS),5(SR)-dihydroxy-7-[1-phenyl-2,5-dimethyl-4-(4-fluorophenyl)-1H-pyrrol-3-yl]hept-6(E)-enoate] | 120 | –
COC(=O)C[C@H](O)C[C@H](O)CCc1c(-c2ccc(F)cc2)cn(C(C)C)c1C (racemic) [Example 17, Methyl 3(RS),5(RS)-dihydroxy-7-[1-isopropyl-2-methyl-4-(4-fluorophenyl)-1H-pyrrol-3-yl]heptanoate] | 100 | –
Cc1c(/C=C/[C@@H](O)C[C@@H](O)CC(=O)O)c(-c2ccc(F)cc2)cn1C(C)C (relative stereo) [Example 16, Sodium 3(RS),5(SR)-dihydroxy-7-[1-isopropyl-2-methyl-4-(4-fluorophenyl)-1H-pyrrol-3-yl]hept-6(E)-enoate] | 160 | –
COC(=O)C[C@H](O)C[C@H](O)CCc1c(-c2ccc(F)cc2)c(C)n(-c2ccccc2)c1C (racemic) [Example 3, Methyl 3(RS),5(RS)-dihydroxy-7-[1-phenyl-2,5-dimethyl-4-(4-fluorophenyl)-1H-pyrrol-3-yl]heptanoate] | 80 | –
COC(=O)C[C@H](O)C[C@H](O)CCc1c(-c2ccc(F)cc2)cn(-c2ccccc2)c1C(C)C (racemic) [Example 13, Methyl 3(RS),5(RS)-dihydroxy-7-[1-phenyl-2-isopropyl-4(4-fluorophenyl)-1H-pyrrol-3-yl]heptanoate] | 15 | –
COC(=O)C[C@H](O)C[C@H](O)/C=C/c1c(-c2ccc(F)cc2)c(C)n(-c2ccccc2)c1C (relative stereo) [Example 1, methyl 3(RS),5(SR)-dihydroxy-7-[1-phenyl-2,5-dimethyl-4-(4-fluorophenyl)-1H-pyrrol-3-yl]hept-6(E)-enoate] | 320 | % potency relative to mevinolin sodium at IC70 [1, 3]: 180%
CC(C)c1c(CC[C@@H](O)C[C@@H](O)CC(=O)[O-])c(-c2ccc(F)cc2)cn1-c1ccccc1.[Na+] (racemic) [Example 14, Sodium 3(RS),5(RS)-dihydroxy-7-[1-phenyl-2-isopropyl-4-(4-fluorophenyl)-1H-pyrrol-3-yl]heptanoate] | 3 | % potency relative to mevinolin sodium at IC70 [1, 3]: 150%
COC(=O)C[C@H](O)C[C@H](O)/C=C/c1c(-c2ccc(F)cc2)cn(-c2ccccc2)c1C (relative stereo) [Example 9, methyl 3(RS),5(SR)-dihydroxy-7-[1-phenyl-2-methyl-4-(4-fluorophenyl)-1H-pyrrol-3-yl]hept-6(E)-enoate] | 120 | –
Cc1c(CC[C@@H](O)C[C@@H](O)CC(=O)[O-])c(-c2ccc(F)cc2)c(C)n1-c1ccccc1.[Na+] (racemic) [Example 4, Sodium 3(RS),5(RS)-dihydroxy-7-[1-phenyl-2,5-dimethyl-4-(4-fluorophenyl)-1H-pyrrol-3-yl]heptanoate] | 8.7 | % potency relative to mevinolin sodium at IC50 ([1]; HEP G2 cells, 1 h preincubation, 3 h with 14C-acetate, comparison of IC50 with mevinolin sodium salt (internal standard)): 450%; % potency relative to mevinolin sodium at IC70 [1, 3]: 51%
COC(=O)C[C@H](O)C[C@H](O)/C=C/c1c(-c2ccc(F)cc2)cn(C(C)C)c1C (relative stereo) [Example 15, methyl 3(RS),5(SR)-dihydroxy-7-[1-isopropyl-2-methyl-4-(4-fluorophenyl)-1H-pyrrol-3-yl]hept-6(E)-enoate] | 70 | –
Cc1c(CC[C@@H](O)C[C@@H](O)CC(=O)O)c(-c2ccc(F)cc2)cn1C(C)C (racemic) [Example 18, Sodium 3(RS),5(RS)-dihydroxy-7-[1-isopropyl-2-methyl-4-(4-fluorophenyl)-1H-pyrrol-3-yl]heptanoate] | 50 | –

More lines, in order of falling IC50 [2], values ahead:

IC50 [2] [nM] | Compound | further results
12 | CC(C)c1c(/C=C/[C@@H](O)C[C@@H](O)CC(=O)O)c(-c2ccc(F)cc2)cn1C1CCCCC1 (relative stereo) [Example 20, Sodium 3(RS),5(SR)-dihydroxy-7-[1-cyclohexyl-2-isopropyl-4(4-fluorophenyl)-1H-pyrrol-3-yl]hept-6(E)-enoate] | –
8 | COC(=O)C[C@H](O)C[C@H](O)/C=C/c1c(-c2ccc(F)cc2)cn(-c2ccccc2)c1C(C)C (relative stereo) [Example 11, methyl 3(RS),5(SR)-dihydroxy-7-[1-phenyl-2-isopropyl-4-(4-fluorophenyl)-1H-pyrrol-3-yl]hept-6(E)-enoate] | –
8 | COC(=O)C[C@H](O)C[C@H](O)CCc1c(-c2ccc(F)cc2)c(C)n(-c2ccccc2)c1C(C)C (racemic) [Example 7, Methyl 3(RS),5(RS)-dihydroxy-7-[1-phenyl-2-isopropyl-4-(4-fluorophenyl)-5-methyl-1H-pyrrol-3-yl]heptanoate] | –
7 | COC(=O)C[C@H](O)C[C@H](O)/C=C/c1c(-c2ccc(F)cc2)c(C)n(-c2ccccc2)c1C(C)C (relative stereo) [Example 5, Methyl 3(RS),5(SR)-dihydroxy-7-[1-phenyl-2-isopropyl-4-(4-fluorophenyl)-5-methyl-1H-pyrrol-3-yl]hept-6(E)-enoate] | –
3 | CC(C)c1c(CC[C@@H](O)C[C@@H](O)CC(=O)O)c(-c2ccc(F)cc2)cn1C(C)C (racemic) [Example 26, Sodium 3(RS),5(RS)-dihydroxy-7-[1,2-diisopropyl-4-(4-fluorophenyl)-1H-pyrrol-3-yl]heptanoate] | –
2.5 | Cc1c(-c2ccc(F)cc2)c(CC[C@@H](O)C[C@@H](O)CC(=O)O)c(C(C)C)n1-c1ccccc1 (racemic) [Example 8, Sodium 3(RS),5(RS)-dihydroxy-7-[1-phenyl-2-isopropyl-4-(4-fluorophenyl)-5-methyl-1H-pyrrol-3-yl]heptanoate] | –
